In US20090118286A1, “Heterobicyclic Acrylamides” (Bayer Cropscience AG, priority 2005, published 2009) one finds chromatographic logP, pest or weed control and Efficacy in % data, which are given here for eleven compounds.

The nature of series [1]: log P determination by HPLC (EEC Directive 79/831 Annex V.A8, gradient method). It is filed as physicochemical. The conditions noted are these: HPLC, gradient method, acetonitrile/0.1% strength aqueous phosphoric acid or formic acid.
Series [2] deals with larvae of the mustard beetle (Phaedon cochleariae). In words: Phaedon test, PHAECO spray treatment. Format: in vivo. The conditions noted are these: foliar, 168 h, 500 g a. i./ha, spray treatment of Chinese cabbage leaf discs, 7 d, read-out: % 7 d (effect in %, beetle larvae killed). How it is done: (§1) [table] To produce a suitable preparation of active compound, 1 part by weight of active compound is mixed with the stated amounts of solvents and emulsifier, and the concentrate is diluted with emulsifier-containing water to the desired concentration. Discs of Chinese cabbage leaves (Brassica pekinensis) are sprayed with a preparation of active compound of the desired concentration and, after drying, populated with larvae of the mustard beetle (Phaedon cochleariae). After the desired period of time, the effect in % is determined. 100% means that all beetle larvae have been killed; 0% means that none of the beetle larvae have been killed.

The test system of series [3] is caterpillars of the army worm (Spodoptera frugiperda). In words: Spodoptera frugiperda test, SPODFR spray treatment. Format: in vivo. The note with it: foliar, 168 h, 500 g a. i./ha, spray treatment of maize leaf discs, 7 d, read-out: % 7 d (effect in %, caterpillars killed). How it is done:
as §1, with “maize” for “Chinese cabbage”, “(Zea mays)” for “(Brassica pekinensis)”, “caterpillars” for “larvae”, “army worm (Spodoptera frugiperda).” for “mustard beetle (Phaedon cochleariae).”, “caterpillars” for “beetle larvae”

The subject of series [4] is Sphaerotheca fuliginea. Description: Sphaerotheca test (cucumber)/protective. The note with it: application rate 500 ppm, protective, evaluation 7 days after inoculation. It is filed as in vivo. How it is done: [table] To produce a suitable preparation of active compound, 1 part by weight of active compound is mixed with the stated amounts of solvent and emulsifier, and the concentrate is diluted with water to the desired concentration. To test for protective activity, young cucumber plants are sprayed with the preparation of active compound at the stated application rate. 1 day after the treatment, the plants are inoculated with a spore suspension of Sphaerotheca fuliginea. The plants are then placed in a greenhouse at 70% relative atmospheric humidity and a temperature of 23° C. Evaluation is carried out 7 days after the inoculation. 0% means an efficacy which corresponds to that of the control, whereas an efficacy of 100% means that no infection is observed.

The subject of series [5] is Botrytis cinerea. Description: Botrytis test (bean)/protective. Format: in vivo. The note with it: application rate 500 ppm, protective, evaluation 2 days after inoculation. How it is done:
[table] To produce a suitable preparation of active compound, 1 part by weight of active compound is mixed with the stated amounts of solvents and emulsifier, and the concentrate is diluted with water to the desired concentration. To test for protective activity, young plants are sprayed with the preparation of active compound at the stated application rate. After the spray coating has dried on, 2 small pieces of agar colonized by Botrytis cinerea are placed onto each leaf. The inoculated plants are placed in a dark chamber at about 20° C. and 100% relative atmospheric humidity. 2 days after the inoculation, the size of the infected areas on the leaves is evaluated. 0% means an efficacy which corresponds to that of the control, whereas an efficacy of 100% means that no infection is observed.

Like-named read-outs stand apart in the source and are kept apart here.

As for `CC(C)NC(=O)/C=C/c1c(-c2ccccc2Cl)nc2sc(C(F)(F)F)nn12` [Example 0148], the chromatographic logP in series [1] (read-out: Physical data (logP)) amounted to 3.13. For the same compound, the results for the pest or weed control at 500 g/ha in series [2] and in series [3] were 83% and 100%, respectively.
For the compound `CC(C)NC(=O)/C=C/c1c(-c2ccccc2Cl)nc2sc(C(F)(F)Cl)nn12` [Example 0724], in series [1] (read-out: Physical data: logP), the chromatographic logP was 3.36. The pest or weed control at 500 g/ha in series [2] and in series [3] was 100% throughout.
As for `CC(C)CN(C)C(=O)/C=C/c1c(-c2ccccc2)nc2sc(C(F)(F)F)nn12` [Example 0913], the Efficacy in % in series [4] was 90%.
As to `O=C(/C=C/c1c(-c2ccc(F)cc2Cl)nc2sc(C(F)(F)F)nn12)NC1CC1` [Example 0585], the chromatographic logP in series [1] (read-out: Physical data: log P) worked out at 3.03. Besides, the pest or weed control at 500 g/ha in series [2] and in series [3] was 100% in each case.
Consider `CC(NC(=O)/C=C/c1c(-c2ccccc2Cl)nc2sc(C(F)(F)F)nn12)c1ccccn1` (stereo not shown) [Example 0203], for which, in series [1] (read-out: Physical data (logP)), the chromatographic logP is 2.39. For the same compound, the pest or weed control at 500 g/ha in series [2] turned out to be 83%; in series [3], 100%.
Regarding `O=C(/C=C/c1c(-c2ccccc2Cl)nc2sc(C(F)(F)Cl)nn12)NC1CC1` [Example 0728], the chromatographic logP in series [1] (read-out: Physical data: logP) turned out to be 3.07. In addition, the pest or weed control at 500 g/ha in series [2] and in series [3] was 100% each time.
For the compound `CCCC(C)NC(=O)/C=C/c1c(-c2ccccc2Cl)nc2sc(C(F)(F)Cl)nn12` (stereo not shown) [Example 0734], the chromatographic logP in series [1] (read-out: Physical data: logP) is 4.06. Also, the pest or weed control at 500 g/ha in series [2] and in series [3] was 100% throughout.
Regarding `O=C(/C=C/c1c(-c2ccccc2Cl)nc2sc(C(F)(F)F)nn12)NCC1CC1` [Example 0166], in series [1] (read-out: Physical data (logP)), the chromatographic logP was determined as 3.26. Besides, in series [2], the pest or weed control at 500 g/ha was found to be 100%.
As to `CCN(CC)C(=O)/C=C/c1c(-c2ccccc2)nc2sc(C(F)(F)F)nn12` [Example 0912], the values for the Efficacy in % in series [4] and in series [5] were 95% and 93%, respectively.
As to `C=CCN(C)C(=O)/C=C/c1c(-c2ccc(Cl)cc2)nc2sc(C(F)(F)F)nn12` [Example 0067], the chromatographic logP in series [1] (read-out: Physical data (logP)) is 3.95. This compound also registered an Efficacy in % in series [4] of 90%.
For `CC(NC(=O)/C=C/c1c(-c2ccc(F)cc2Cl)nc2sc(C(F)(F)F)nn12)C(F)(F)F` (stereo not shown) [Example 0598], in series [1] (read-out: Physical data: log P), the chromatographic logP came to 3.79. Also, the pest or weed control at 500 g/ha in series [2] and in series [3] was 100% throughout.
